Data set [1] relates to OPM-2 multiple myeloma cells. Briefly: Cell Titre Glo viability, EZH2 inhibitor and lenalidomide matrix, OPM-2. The format is cell-based. The note with it: Inhibitor 1 alone, FIG. 3E. On the procedure: (§1) For all these experiments estimating the combinatorial response between EZH2 inhibitor and lenalidomide, cells were pre-treated with 8 different doses of EZH2 inhibitor for 8 days (Cells were split after 4 days and plated onto EZH2 inhibitor containing plates for an additional 4 days). After pre-treatment, cells were split and seeded onto EZH2 inhibitor and lenaldomide containing plates (compounds plated in a matrix format). Viability was assessed using Cell Titre Glo after 4 days of co-treatment.
(§2) Data are represented as the average percentage of cells in drug-treated wells as compared to DMSO-treated wells from independent duplicate experiments (i and ii). To assess synergy, the data was analyzed in a number of ways including calculation of combination index, bliss independence score and Loewe excess score. […] Data are represented as the mean of independent duplicate experiments ±s.d.

Data set [2] has as its system KMS-27 multiple myeloma cells. Description: Cell Titre Glo viability, EZH2 inhibitor and lenalidomide matrix, KMS-27. The settings on record: Inhibitor 1 alone, FIG. 4E. The format is cell-based. On the procedure:
as §1, §2

Data set [3] relates to OPM-2 subcutaneous xenograft. Briefly: OPM-2 subcutaneous xenograft combination experiment (lenalidomide, dexamethasone). The format is in vivo, BALB/C nude mouse. On the procedure:
(§3) The experiment was carried out to assess the impact of Inhibitor 1 and lenalidomide in combination. Inhibitor 1 was dosed twice daily at 200 mg/kg, administered subcutaneously (200 mpk SC BID) and lenalidomide was dosed intraperitoneally once a day at 25 mg/kg (25 mpk IP QD) for the course of the entire study. Tumor volume was plotted as a function of time. Data are represented as the mean tumor volume per cohort and time point ±s.d. Bodyweight was assessed for vehicle and compound-treated animals for the experiment described in FIG. 6A. […] Data are represented as described in FIG. 6A. Vehicle and compound-treated tumors were collected at the end of the study and analyzed for global H3K27me3 and total H3 levels using an MSD ELISA assay.
Tumor volume was plotted as a function of time.

The test system of data set [4] is H3K27me3. Description: MSD ELISA of global H3K27me3 and total H3 in OPM-2 tumors (lenalidomide study). The settings on record: end of study, total H3 as normalizer; Inhibitor 1 vs vehicle control, combination vs lenalidomide alone; FIG. 6C. The format is in vivo, BALB/C nude mouse. As for the experimental part: as §3
Total H3 was used as a normalizer. Data are represented as the mean of data from 4 subjects±s.e.m.
Background: ELISA stands for enzyme-linked immunosorbent assay.

The test system of data set [5] is H3K27me3. Briefly: MSD ELISA of global H3K27me3 and total H3 in OPM-2 tumors (Panobinostat study). The note with it: Inhibitor 1 200 mpk SC BID vs vehicle control, end of study. The format is in vivo, BALB/C nude mouse. As for the experimental part: FIG. 11A is an in vivo combination experiment using an OPM-2 subcutaneous xenograft BALB/C nude mouse model (n=8 per cohort). The experiment was carried out to assess the impact of Inhibitor 1 and Panobinostat in combination. Inhibitor 1 was dosed twice daily at 200 mg/kg administered subcutaneously (200 mpk SC BID) and Panobinostat was dosed intraperitoneally once a day. Panobinostat was dosed at 5 mg/kg QD (DO-D4); 2.5 mg/kg QD (D7-D9, D13, D17 and D19), the dose and frequency of dosing was reduced to manage the toxicity effects. Tumor volume was plotted as a function of time. Data are represented as the mean tumor volume per cohort and time point±s.d. Bodyweight was assessed for vehicle and compound-treated animals for the experiment described in FIG. 11B. Data are represented as described in FIG. 11C. Vehicle and Inhibitor 1-treated tumors were collected at the end of the study and analyzed for global H3K27me3 and total H3 levels using an MSD ELISA assay. […] Data are represented as the mean of data from 4 subjects±s.e.m.

Data set [6] deals with 19 multiple myeloma cell lines. Briefly: Combination with standard of care agents in multiple myeloma cell lines. The format is cell-based. The note with it: FIG. 16. The source says:
FIG. 16 summarizes the synergies observed between various standard of care agents as described above in 19 multiple myeloma cell lines.

In a further data set the test system is KARPAS-422 xenograft. The settings on record: mouse, in vivo, po, 100 mg/kg. On the procedure:
Tumor volume measurements were recorded at indicated days post initial dose.* CHOP: Cyclophosphamide, 40 mg/kg, i.v.; doxorubicin, 3.3 mg/kg, i.v.; vincristine, 0.5 mg/kg, i.v.; and prednisone, 0.2 mg/kg, every day for 5 days, p.o.

With `CCS(=O)(=O)N1CCC([C@@H](C)n2c(C)c(C(=O)NCc3c(OC)cc(C)[nH]c3=O)c3ccccc32)CC1` [Inhibitor 1], the “effect of single agent on cell viability” value in data set [1] and in data set [2] was “dose-dependent effect” each time. Moreover, the “single agent activity in xenograft model” value in data set [3] (Inhibitor 1 200 mpk SC BID alone) was “little single agent activity”. Moreover, in data set [3] (OPM-2 xenograft, FIG. 13), the “effect on in vivo anti-tumor activity of dexamethasone” value is recorded as “increases”. Further, the “levels of H3K27me3 in tumors” value in the data set on H3K27me3 [4] and in the data set with H3K27me3 [5] was “marked reduction” each time. The “combinatorial activity with standard of care agents” value in data set [6] is reported as “broadly combines with various different standard of care agents”.

Consider `COc1cc(C)[nH]c(=O)c1CNC(=O)c1c(C)n(C(C)C2CCN(CC(F)(F)F)CC2)c2ccccc12` (stereo not drawn) [Inhibitor 3], for which the “adverse effects / toxicity” value in the data set on KARPAS-422 xenograft is “did not show any adverse effects and did not add to CHOP toxicity”.

With `Nc1cccc2c1CN(C1CCC(=O)NC1=O)C2=O` (stereo not drawn) [Lenalidomide, lenalidomide, reference compound], the “levels of H3K27me3 in tumors” value in the data set with H3K27me3 [4] was “did not affect”.
